According to PMC8305664, “Knockdown of a β-Adrenergic-Like Octopamine Receptor Affects Locomotion and Reproduction of Tribolium castaneum” (International Journal of Molecular Sciences, 2021):

Biological target: T1, TcOctβ2R (β-adrenergic-like octopamine receptor) (Tribolium castaneum, UniProt N1NSX1)
T1 construct: full ORF (411 amino acids), pcDNA3.1(+), transiently expressed in HEK 293 cells
T1 sequence (N1NSX1 1-411): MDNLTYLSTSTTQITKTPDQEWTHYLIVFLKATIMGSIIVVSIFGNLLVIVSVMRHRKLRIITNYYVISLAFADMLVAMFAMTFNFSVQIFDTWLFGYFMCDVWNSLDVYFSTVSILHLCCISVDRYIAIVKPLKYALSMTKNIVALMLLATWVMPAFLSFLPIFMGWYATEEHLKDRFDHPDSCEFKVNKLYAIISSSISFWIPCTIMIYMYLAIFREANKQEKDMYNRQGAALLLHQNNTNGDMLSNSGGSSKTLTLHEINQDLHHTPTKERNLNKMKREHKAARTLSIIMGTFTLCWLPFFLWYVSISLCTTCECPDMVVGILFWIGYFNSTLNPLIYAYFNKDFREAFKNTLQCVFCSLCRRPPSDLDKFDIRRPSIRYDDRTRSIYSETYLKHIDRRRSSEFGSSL
Assay: GloSensor cAMP assay in HEK […] cells expressing the receptor (agonist)
Format: cell-based

In order of rising EC50:
1. c1ccc2c(CC3=NCCN3)cccc2c1 [naphazoline]  7.1 nM
2. NCC(O)c1ccc(O)cc1 (stereo not drawn) [octopamine]  28 nM
3. NCCc1ccc(O)cc1 [tyramine]  200 nM
